This note sets out measurements from PubChem BioAssay AID493130 (Broad Institute, 2011).

Structures are written as SMILES. Results filed as inconclusive are left out. Activity calls are given as the source filed them.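 Rule for the calls: active = signal-lowering compounds whose fitted half-maximal concentration is at most ten times their highest tested dose; inconclusive = flat fit between -30 and -70%, or poor fit; inactive = flat within 30%, signal rising, or potency beyond limit.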

The target in one test is POS-1 (Caenorhabditis elegans) binding to mex-3 RNA. Nature of the test: inhibitors of POS-1/mex-3 RNA binding, dose response, counter-screen for MEX-5 RNA-binding inhibitor project, biochemical, fluorescence polarization, cherry-picked samples, set 2 (AID 493130).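 Note: POS-1 as maltose binding protein fusion made in E. coli with FITC RNA.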 Conditions: POS-1/mex-3 RNA fluorescence polarization, 1 h.
With `CN1Cc2sc(N)c(C#N)c2CC1(C)C`, the AC50 was 9.75 µM.
On the same count and under the same terms, as for `NS(=O)(=O)c1ccc(-c2ccc(C=C3C(=O)NC(=S)NC3=O)o2)cc1`, the figure is 8.28 µM.
`O=c1[nH]c(/C=C/c2cccc3ccccc23)nc2ccccc12`: the AC50 is > 10 µM (inactive).
As to `CCCC1C2CN(C(C)C)CC=C2C(C#N)=C(N)C1(C#N)C#N` (stereo not given), the concentration at half-maximal activity (AC50) is 1.81 µM.
For `O=c1ccc2cc3c([nH]c4ccc(Br)cc43)oc-2c1O`, the concentration at half-maximal activity (AC50) was 1.64 µM.

The same test, now with this note: POS-1/mex-3 RNA fluorescence polarization, 1 h; at 10 µM (top of the series).
Take `Cc1ccc(/C=C2/NC(=O)N(Cc3ccccc3)C2=O)s1`: the “activity change, negative = inhibition” value was “inactive”.
For `COC(=O)c1cccc2nc3c(C(C)O)cccc3nc12` (stereo not given), the “activity change, negative = inhibition” value is “inactive”.
Still for that read-out and setting: next, `COc1ccc(-c2csc(Nc3ccc(S(N)(=O)=O)cc3)n2)cc1OC`: “inactive”; `O=S(=O)(O)c1nc2ccccc2n1Cc1ccc(Cl)cc1Cl`: “inactive”; `Cc1cc(C)c([C@@H]2C[C@H]3CN(C4CCCC4)C(=O)[C@]34CCCN24)c(-n2cccn2)c1`: “inactive”.
Same read-out and setting: next, `COc1ccc(/C=N/Nc2nc(=O)[nH]nc2C)cc1[N+](=O)[O-]`: “inactive”; `O=C(O)c1ccc2cccnc2c1O`: “inactive”; `O=c1[nH]c(=S)n(-c2ccccc2F)c(O)c1C=Nc1ccc(N2CCOCC2)cc1`: “inactive”.
For the compound `c1cncc(C2CC(c3cccs3)n3ncnc3N2)c1` (stereo not given), the “activity change, negative = inhibition” value was “inactive”.
In the case of `COc1cc(N2CCCC2)c(OC)cc1/C=C(/C#N)c1cccc(Br)c1`, the “activity change, negative = inhibition” value is “inactive”.
The same measure, in the same setting: next, `CCOC(=O)c1c(=O)n(O)c2ccc(OC)cc2[n+]1[O-]`: “inactive”; `COc1cc2c3c(c1OC)-c1cc(O)ccc1CC3NCC2` (stereo not given): “inactive”; `COCc1cc(C)nc(N/N=C/c2ccc(-c3cc(C(=O)O)ccc3Cl)o2)c1C#N`: “inactive”.
Same read-out and setting: next, `CC(=O)Nc1ccc(-c2csc(Nc3cccc(C)n3)n2)cc1`: “inactive”.
Turning to `CCCCCOP(=O)(OCCCCC)C1(NS(=O)(=O)c2ccccc2)C=CC(=O)c2ccccc21` (stereo not given), the “activity change, negative = inhibition” value was “inactive”.
Same read-out and setting: next, `CN(C)c1ccc(/C=C/c2nc3ccccc3c(=O)[nH]2)cc1`: “inactive”; `N#Cc1cc2c(=O)n3ccccc3nc2n(CCCN2CCOCC2)c1=O`: “inactive”; `Cc1cc([N+](=O)[O-])nn1CC(=O)NNC(=S)Nc1ccc(F)cc1`: “inactive”.
As for `CN1CN(C)c2cccc3cccc1c23`, the “activity change, negative = inhibition” value is “inactive”.
On the same count and under the same terms, next, `COc1ccc(N/C=C/C(=O)c2ccc3c(c2)OCO3)cc1OC`: “inactive”.
Turning to `COc1ccc(N=C2S/C(=C\c3cc(C)n(C)c3C)C(=O)N2C)cc1`, the “activity change, negative = inhibition” value is “inactive”.
Still for that read-out and setting: as for `COc1ccc(NS(=O)(=O)c2cccc(C(=O)NNC(=O)c3cc(S(N)(=O)=O)ccc3OC)c2)cc1`, the entry is “inactive”.
`COc1cccc(OCC(=O)NNC(=O)c2cnccn2)c1`: the “activity change, negative = inhibition” value is “inactive”.
With `CN1C(=O)NC(c2ccccc2Cl)C2=C1CC(C)(C)CC2=O` (stereo not given), the “activity change, negative = inhibition” value is “inactive”.
Take `COc1ccccc1OCC(=O)NNC(=O)c1cnccn1`: the “activity change, negative = inhibition” value is “inactive”.
For the compound `Oc1cccc(NC(=S)N=Nc2c(O)[nH]c3ccc(Br)cc23)c1`, the “activity change, negative = inhibition” value was “inactive”.
`Oc1ccc(/C=N/Nc2ccc(Cl)nn2)c(O)c1O`: the “activity change, negative = inhibition” value was “inactive”.
As to `COc1cc(/C=C2\CCCc3c2nc2ccccc2c3C(=O)O)cc(OC)c1O`, the “activity change, negative = inhibition” value is “inactive”.
Take `O=c1c(OC2OC(CO)C(O)C(O)C2O)c(-c2ccc(O)c(O)c2)oc2cc(O)cc(O)c12` (stereo not given): the “activity change, negative = inhibition” value was “inactive”.
Consider `CCOC(=O)c1c(NS(=O)(=O)c2ccccc2)n(CCCOC)c2nc3ccccc3nc12`, for which the “activity change, negative = inhibition” value is “inactive”.
In the case of `O=c1cc(-c2ccccc2)oc2ccc(O)cc12`, the “activity change, negative = inhibition” value is “inactive”.
For the compound `CCCc1nc2c(=O)n(C)c(=O)[nH]c2n1C`, the “activity change, negative = inhibition” value is “inactive”.
Turning to `CC(=O)Nc1ccc2c(c1)C(=O)N(c1cccc(C)c1)C2=O`, the “activity change, negative = inhibition” value was “inactive”.
Regarding `Cc1ccc(S(=O)(=O)c2cc3c(=O)n4ccccc4nc3n(C3CCCCC3)c2=N)cc1`, the “activity change, negative = inhibition” value is “inactive”.
With `CS(=O)(=O)c1nsc2nc(=O)c(/C=C3\C=Nc4ccccc43)c(N)n12`, the “activity change, negative = inhibition” value is “inactive”.
For `CC1=CC(=C2C(=O)NC(=S)NC2=O)C=C(C(F)(F)F)N1Cc1ccccc1`, the “activity change, negative = inhibition” value is “inactive”.
Consider `O=C(O)COc1ccc(Br)cc1C(c1c(C(=O)O)[nH]c2ccccc12)c1c(C(=O)O)[nH]c2ccccc12`, for which the “activity change, negative = inhibition” value was “inactive”.
`Cc1c(CN2CCCC(C)C2)c(O)n(CCO)c(=O)c1C#N` (stereo not given): the “activity change, negative = inhibition” value is “inactive”.
`O=C(NNC(=S)NC(=O)c1ccccc1[N+](=O)[O-])c1ccccc1[N+](=O)[O-]`: the “activity change, negative = inhibition” value was “inactive”.
For the compound `COc1c(O)ccc(/C=C(\C#N)c2nc3ccccc3[nH]2)c1[N+](=O)[O-]`, the “activity change, negative = inhibition” value was “inactive”.
In the case of `O=C(NC(=S)NNS(=O)(=O)c1ccccc1)c1ccc([N+](=O)[O-])cc1`, the “activity change, negative = inhibition” value is “inactive”.
Turning to `CCOC(=O)c1ccc(NC(=O)C(=O)NCc2ccc(/C=C(/C#N)C(=O)NCCOC)o2)cc1`, the “activity change, negative = inhibition” value was “inactive”.
On to `COC/C=C/C1=CC2=CC(=O)C(C)(O)C(=O)C2=CO1` (stereo not given), for which the “activity change, negative = inhibition” value was “inactive”.
For the compound `COc1ccccc1-c1cn[nH]c1-c1ccc(O)cc1O`, the “activity change, negative = inhibition” value was “inactive”.
Consider `COc1ccc2c(c1OC)CN1CCc3cc4c(cc3[C@@H]1[C@@H]2O)OCO4`, for which the “activity change, negative = inhibition” value was “inactive”.
The same measure, in the same setting: as for `Cc1c(C=O)c(Cl)n(C)c(=O)c1C#N`, the entry is “inactive”; as for `C[C@H](O)CC1=C[C@H](O)[C@@H](C)OC1=O`, “inactive”; as for `O=C(NNC(=O)c1cccs1)c1csc(N2CCOCC2)n1`, “inactive”.
Same read-out and setting: next, `O=C(/C=C/c1ccc(O)c(O)c1)OC1C(O)CC(OC(=O)/C=C/c2ccc(O)c(O)c2)(C(=O)O)CC1O` (stereo not given): “inactive”; `O=C(O)CCC(=O)NNc1ncnc2ccccc12`: “inactive”; `Cc1ccc2oc(=O)c(/C=C(\O)c3ccco3)nc2c1`: “inactive”.
Take `COc1cc(/C=C/c2nc(-c3ccccc3O)n[nH]2)cc(OC)c1OC`: the “activity change, negative = inhibition” value was “inactive”.
Consider `COc1ccc2nc3ccccc3nc2c1N`, for which the “activity change, negative = inhibition” value is “inactive”.
For `COc1cccc(NC2=C(NCCO)C(=O)c3ccccc3C2=O)c1`, the “activity change, negative = inhibition” value was “inactive”.
On to `Nc1ccc(S(=O)(=O)NNC(=O)C(=O)NNc2ccccn2)cc1`, for which the “activity change, negative = inhibition” value was “inactive”.
